The compounds below were run on zebrafish model showing an anesthetic effect by acute alcohol treatment (assay: Movement distance of zebrafish model with acute alcohol treatment (total distance, video tracking 20 minutes)). Conditions: zebrafish larvae 7 dpf, ETOH 2%, omega-3 1.4 mg/L, B2 0.2 mg/L, B3 0.5 mg/L, values converted from FIG. 4.
Assay type: in vivo
Procedure: First, each of omega-3 fatty acid (1.4 mg/L), riboflavin (vitamin B2) (0.2 mg/L), and nicotinamide (vitamin B3) (0.5 mg/L) was dissolved in E3 media to prepare a pre-treatment solution. A mixture of omega-3 fatty acid (1.4 mg/L), riboflavin (vitamin B2) (0.2 mg/L), and nicotinamide (vitamin B3) (0.5 mg/L) was dissolved in E3 media to prepare a pre-treatment solution. Each of omega-3 fatty acid (1.4 mg/L), riboflavin (vitamin B2) (0.2 mg/L), and nicotinamide (vitamin B3) (0.5 mg/L) was dissolved in ETOH 2% (in E3 media) to prepare a post-treatment solution. A mixture of omega-3 fatty acid (1.4 mg/L), riboflavin (vitamin B2) (0.2 mg/L), and nicotinamide (vitamin B3) (0.5 mg/L) was dissolved in ETOH 2% (in E3 media) to prepare a post-treatment solution. Zebrafish larvae at 7 days post-fertilization (dpf) were exposed in water to 200 μl/well of the pre-treatment solution for each group (n=20/group) in a 96-well plate for 1 hour. 1 zebrafish larva was in each well. After 1 hour of pre-treatment, the pre-treatment solution was replaced with 200 μl/well of the post-treatment solution for each group, followed by exposure in water. Subsequently, the behaviors of the zebrafish larvae were recorded for 20 minutes. After recording, the cumulative distances for each section (0-5 min, 5-10 min, 10-15 min, and 15-20 min) of the normal control and the experimental groups were analyzed, and the results thereof are shown in FIGS. 1 and 2. […]
Particularly, the behaviors of zebrafish larvae were recorded for 20 minutes, and after recording, the total distance for an experiment time of 20 minutes of each of the normal control and the experimental groups was analyzed, and the results thereof are shown in FIG. 4. […]

Row | Compound | Average value of total movement distance [mm]
1 | omega-3 fatty acid [ETOH + Omega-3 fatty acid] | 399.3
2 | NC(=O)c1cccnc1 [ETOH + B3, nicotinamide] | 77.39
3 | riboflavin [ETOH + B2] | 223.97

Reference: patent US20230210802A1, “COMPOSITION FOR RELIEVING HANGOVER AND IMPROVING LIVER FUNCTION” (Zefit Inc., priority 2022, published 2023)
